Among the data in patent US8324250B2 (Hoffmann-La Roche Inc., priority 2009, dated 2012) are Ki values, retold here.

The target of the experiment is T1, recombinant human NK3 receptor (Homo sapiens, UniProt P29371).
T1 construct: expressed in transfected cells; host or cells: HEK293 cells (transient expression), membranes
T1 sequence (P29371 1-465): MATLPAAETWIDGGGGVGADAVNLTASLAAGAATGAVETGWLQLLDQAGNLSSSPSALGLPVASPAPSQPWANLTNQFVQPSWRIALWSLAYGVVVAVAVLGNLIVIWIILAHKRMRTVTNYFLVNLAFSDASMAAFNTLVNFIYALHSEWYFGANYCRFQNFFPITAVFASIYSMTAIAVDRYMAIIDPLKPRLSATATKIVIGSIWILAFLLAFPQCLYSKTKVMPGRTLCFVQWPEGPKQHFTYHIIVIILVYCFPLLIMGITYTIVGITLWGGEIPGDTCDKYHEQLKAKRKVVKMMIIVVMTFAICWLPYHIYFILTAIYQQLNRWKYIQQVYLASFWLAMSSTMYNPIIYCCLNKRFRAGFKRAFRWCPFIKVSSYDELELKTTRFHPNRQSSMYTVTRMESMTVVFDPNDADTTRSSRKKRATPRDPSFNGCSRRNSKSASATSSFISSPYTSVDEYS
Put plainly: [3H]SR142801 competition binding assay. As to conditions: membranes from HEK293 cells transiently expressing recombinant human NK3 receptor; [3H]SR142801 radioligand; 75 min at RT; Ki by Cheng-Prussoff; read-out: Data Ki (hNK-3 receptor affinity). How it is done:
[^3H]SR142801 Competition Binding Assay
hNK3 receptor binding experiment were performed using [^3H]SR142801 (Catalog No. TRK1035, specific activity: 74.0 Ci/mmol, Amersham, GE Healthcare UK limited, Buckinghamshire, UK) and membrane isolated from HEK293 cells transiently expressing recombinant human NK3 receptor. After thawing, the membrane homogenates were centrifuged at 48,000×g for 10 min at 4° C., the pellets were resuspended in the 50 mM Tris-HCl, 4 mM MnCl2, 1 μM phosphoramidon, 0.1% BSA binding buffer at pH 7.4 to a final assay concentration of 5 μg protein/well. […] At the end of the incubation, membranes were filtered onto unitfilter (96-well white microplate with bonded GF/C filter preincubated 1 h in 0.3% PEI+0.3% BSA, Packard BioScience, Meriden, Conn.) with a Filtermate 196 harvester (Packard BioScience) and washed 4 times with ice-cold 50 mM Tris-HCl, pH 7.4 buffer. Nonspecific binding was measured in the presence of 10 μM SB222200 for both radioligands. The radioactivity on the filter was counted (5 min) on a Packard Top-count microplate scintillation counter with quenching correction after addition of 45 μl of microscint 40 (Can berra Packard S. A., Zurich, Switzerland) and shaking for 1 h. Inhibition curves were fitted according to the Hill equation: y=100/(1+(x/IC50)^nH), where nH=slope factor using Excel-fit 4 software (Microsoft). IC50 values were derived from the inhibition curve and the affinity constant (Ki) values were calculated using the Cheng-Prussoff equation Ki═IC50/(1+[L]/KD) where [L] is the concentration of radioligand and KD is its dissociation constant at the receptor, derived from the saturation isotherm. All experiments were performed in duplicate and the mean±standard error (SEM) of the individual Ki values was calculated.

Usually Ki stands for the dissociation constant of the complex between target and ligand, obtained from inhibition or displacement.

As to `Cc1nc(-c2ccc(C(=O)N3CCC(C(=O)N[C@@H](C)c4ccc(F)cc4)(C4CCCC4)CC3)cc2)no1` [Example 112, 4- Cyclopentyl-1-[4-(5-methyl-[1,2,4]oxa-diazol-3-yl)-benzoyl]-piperidine-4-carboxylic acid [(S)-1-(4-fluoro-phenyl)-ethyl]-amide], the Ki was 82.8 nM.

`Cc1noc(-c2ccc(C(=O)N3CCC(C(=O)N[C@@H](C)c4cccc(F)c4)(c4ccc(F)cc4)CC3)cc2)n1` [Example 161, 4-(4-Fluoro-phenyl)-1-[4-(3-methyl-[1,2,4]oxadiazol-5-yl)-benzoyl]-piperidine-4-carboxylic acid [(S)-1-(3-fluoro-phenyl)-ethyl]-amide]: the inhibitory constant (Ki) came out at 4.6 nM.

For the molecule `CC(C)C(NC(=O)C1(c2ccc(F)cc2)CCN(C(=O)c2ccc(-c3ccc(F)cc3)cc2)CC1)c1ccc(F)cc1` (stereo not drawn) [Example 144, 1-(4′-Fluoro-biphenyl-carbonyl)-4-(4-fluoro-phenyl)-piperidne-4-carboxylic acid [1-(4-fluoro-phenyl)-2-methyl-propyl]-amide], the Ki turned out to be 10.9 nM.

Consider `C[C@H](NC(=O)C1(c2ccccc2)CCN(C(=O)c2ccc(-c3ccc(C#N)cc3)cc2)CC1)c1ccccc1` [Example 55, 1-(4′-Cyano-biphenyl-4-carbonyl)-4-piperidine-phenyl-4-carboxylic acid ((S)-1-phenyl-ethyl)-amide], for which the Ki came out at 14.8 nM.

Consider `C[C@H](NC(=O)C1(c2ccccc2)CCN(C(=O)c2ccc(N3CCCCC3)nc2)CC1)c1ccccc1` [Example 12, 4-Phenyl-1-(3,4,5,6-tetrahydro-2H-[l,2′]bipyridinyl-5′-carbonyl)-piperidine-4-carboxylic acid ((S)-1-phenyl-ethyl)-amide], for which the Ki came out at 50.4 nM.

Regarding `O=C(c1ccc(-c2ccc(F)cc2)cc1)N1CCC(C(=O)NC(c2ccccc2)C2CC2)(c2ccc(F)cc2)CC1` (stereo not drawn) [Example 147, 1-(4′-Fluoro-biphenyl-4-carbonyl)-4-(4-fluoro-phenyl)-piperidine-4-carboxylic acid (cyclopropyl-phenyl-methyl)-amide], the Ki amounted to 17.6 nM.

With `CC[C@H](NC(=O)C1(c2ccccc2)CCN(C(=O)c2ccc(-c3ccc(F)cc3)cc2)CC1)c1ccccc1` [Example 85, 1-(4′-Fluoro-biphenyl-4-carbonyl)-4-phenyl-piperidine-4-carboxylic acid ((S)-1-phenyl-propyl)-amide], the inhibition constant Ki came to 2.7 nM.

`C[C@H](NC(=O)C1(c2ccccc2)CCN(C(=O)c2ccc(-n3cncn3)nc2)CC1)c1ccccc1` [Example 39, 4-Phenyl-1-(6-[l,2,4]triazol-1-yl-pyridine-3-carbonyl)-piperidine-4-carboxylic acid ((S)-1-phenyl-ethyl)-amide]: the Ki was found to be 80.8 nM.

Take `C[C@H](NC(=O)C1(c2ccc(F)cc2)CCN(C(=O)c2ccc(N3CCCCC3=O)cc2)CC1)c1cccc(F)c1` [Example 173, 4-(4-Fluoro-phenyl)-1-[4-(2-oxo-piperidin-1-yl)-benzoyl]-piperidine-4-carboxylic acid [(S)-1-(3-fluoro-phenyl)-ethyl]-amide]: the Ki amounted to 43 nM.

`C[C@H](NC(=O)C1(c2ccc(F)cc2)CCN(C(=O)N2CCN(c3ccc(F)cc3)CC2)CC1)c1ccc(F)cc1` [Example 179, 4-(4-Fluoro-phenyl)-1-[4-(fluoro-phenyl)-piperazine-1-carbonyl]-piperidine-4-carboxylic acid [(S)-1-(4-fluoro-phenyl)-ethyl]-amide]: the Ki came out at 18 nM.

For the molecule `C[C@H](NC(=O)C1(c2ccccc2)CCN(C(=O)N2CCN(c3ccccc3)CC2)CC1)c1ccccc1` [Example 232, 4-Phenyl-1-(4-phenyl-piperazine-1-carbonyl)-piperidine-4-carboxylic acid ((S)-1-phenyl-ethyl)-amide], the Ki worked out at 36.3 nM.

On to `O=C(c1ccc(-c2ccc(F)cc2)cc1)N1CCC(C(=O)NC2(c3ccc(F)cc3)CC2)(c2ccc(F)cc2)CC1` [Example 135, 1-(4′-Fluoro-biphenyl-4-carbonyl)-4-(4-fluoro-phenyl)-piperidine-4-carboxylic acid [1-(4-fluoro-phenyl)-cyclopropyl]-amide], for which the inhibition constant (Ki) turned out to be 26.7 nM.
